Measured values taken from patent publication US9012655B2, “Antimicrobial/adjuvant compounds and methods” (Denouamed, Inc., priority 2011, dated 2015).
≈ marks a conversion by molar mass, not a printed value.

Tests used:
[1] = tested on: Streptococcus pneumoniae Group A; assay: MIC against Streptococcus pneumoniae Group A; format: cell-based; settings: initial measurement, Todd Hewitt broth
Description: (§1) Susceptibilities to the compounds were determined using the National Committee for Clinical Laboratory Standards (NCCLS) M7-A6 broth microdilution method. Cation-adjusted Mueller-Hinton broth (Ca^2+, 25 μg/mL; Mg^2+, 12.5 μg/mL) microdilution panels were prepared to contain antimicrobial doubling dilution concentrations of an appropriate range. DMSO (dimethylsulfoxide) controls were incorporated into the panel to mimic the quantity of DMSO used in dissolving some of the compounds at the higher concentrations. Each final panel well volume was 100 μL with a bacterial inoculum of 5×10^5 CFU (colony forming units)/mL of the relevant bacterium. Panels were read following 16 to 20 h of incubation at 35 degrees Celsius in ambient air. The MIC (minimum inhibitory concentration) was defined as the lowest concentration of antimicrobial inhibiting visible growth.
Generally following the procedure of Example 9, but using Todd Hewitt broth (beef heart digest) rather than Mueller-Hinton broth, MICs were initially measured against Streptococcus pneumoniae Group A for compounds of the present invention as follows: […]

AcpS enzyme = AcpS enzyme (Escherichia coli, UniProt P24224); assay: Measurement of AcpS inhibition ([3H]acetyl-CoA incorporation into apo-ACP); format: biochemical; settings: % activity vs blank-subtracted counts; for activity at 50 µM: test compound 50 uM; for remaining activity at 500 µM: test compound 500 uM
Description: [^3H]Acetyl-CoA was mixed as 1 volume of Perkin Elmer NET290 radiolabeled stock (e.g. 0.1 mCi/ml, 3.7 Ci/mmol in Na-acetate, pH 4.5-5.0=27 μM) with 1.2 volumes of 1 mM unlabelled acetyl-CoA (Sigma). Trichloroacetic acid was prepared as a 10% w/v solution. Bovine serum albumin was prepared as a 25 mg/ml solution in water. DTT was prepared as a 50 mM solution in water.
• 1. A standard reaction contained the following in a total volume of 10 μl:
• 2. Tubes were incubated at RT. [^3H]acetyl-CoA was added last to start the reaction. To stop the reaction, 2 μl was removed to a 1.5-ml microfuge tube containing 800 μl cold 10% TCA. Up to four time points were collected for each reaction, e.g. at 5 min, 10 min, 30 min, and 60 min. • 3. 20 μl of 25 mg/ml BSA was added to each tube, mixed and incubated on ice for 10 min, then centrifuged at 12,000 g for 5 min to form a pellet. Supernatant was removed using P1000. • 4. Each pellet was washed twice with 800 μl of cold 10% TCA each time, then centrifuged at 12,000 g for 5 min after each wash. The supernatant was discarded. Each pellet was resuspended in 50 μl of formic acid. The suspension was transferred to a scintillation vial and radioactivity was measured in 2 ml of liquid scintillation cocktail.
The random (stochastic) error in scintillation counting is proportional to the square root of the counts (not dpm) accumulated in the counting period; i.e. 10% for 100, 3.3% for 1,000, 1% for 10,000, etc. Provided radioactive counts (dpm) are in the thousands, the assay provides useful data. Results are reported in terms of % activity with respect to the blank-subtracted counts for working substrate. A % activity of less than about 40% is indicative of AcpS enzyme inhibition by the test compound at that concentration.

[2] = tested on: Methicillin-Resistant Staph. aureus (MRSA); assay: MIC, NCCLS M7-A6 broth microdilution, MRSA; format: cell-based; settings: Staphylococcus aureus, MRSA, 16 to 20 h, 35 degrees Celsius
Description: as §1

E. coli D22 = assay: MIC, NCCLS M7-A6 broth microdilution, E. coli D22; format: cell-based; settings: Escherichia coli, D22, 16 to 20 h, 35 degrees Celsius
Description: as §1

Chain of AcpS enzyme (P24224 whole entry): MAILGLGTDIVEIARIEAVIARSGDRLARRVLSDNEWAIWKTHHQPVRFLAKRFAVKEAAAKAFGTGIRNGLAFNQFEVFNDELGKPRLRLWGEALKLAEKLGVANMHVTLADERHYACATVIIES

| SMILES | MIC [1] [µM] | activity at 50 µM (AcpS enzyme) [%] | remaining activity at 500 µM (AcpS enzyme) [%] | MIC [2] [µM] | MIC (E. coli D22) [µM] |
| --- | --- | --- | --- | --- | --- |
| Cc1c(-c2nnn[nH]2)sc(-c2ccc(C)c3ccccc23)c1-c1ccc(C)c2ccccc12 [DNM0620, 5-(4,5-Bis(4-methylnaphthalen-1-yl)-3-methylthiophen-2-yl)-1H-tetrazole] | < 0.25 |  |  |  |  |
| Cc1ccc(-c2cc(-c3nnn[nH]3)sc2-c2ccc(C)c3ccccc23)c2ccccc12 [DNM0486, 5-(4,5-Bis(4-methylnaphthalen-1-yl)thiophen-2-yl)-1H-tetrazole] |  | 0.82 | 0.16 | 2 (≈ 0.865 µg/mL) | > 125 |
| Cc1c(-c2nnn[nH]2)sc(-c2ccc(Cl)cc2C(C)C)c1-c1ccc(Cl)cc1C(C)C [DNM0631, 5-(4,5-Bis(4-chloro-2-isopropylphenyl)-3-methylthiophen-2-yl)-1H-tetrazole] | < 0.25 |  |  |  |  |
| CC(C)c1ccccc1-c1cc(-c2nnn[nH]2)sc1-c1ccccc1C(C)C [DNM0534, 5-(4,5-Bis(2-isopropylphenyl)thiophen-2-yl)-1H-tetrazole] |  | 34 | 0 | 8 (≈ 3.11 µg/mL) | > 125 |
| CC(C)(C)c1ccc(-c2cc(-c3nnn[nH]3)sc2-c2ccc(C(C)(C)C)cc2)cc1 [DNM0546, 5-(4,5-Bis(4-tert-butylphenyl)thiophen-2-yl)-1H-tetrazole] |  | 37.2 | 5.16 | 4 (≈ 1.67 µg/mL) | > 125 |
